Assay results taken from ChEMBL document CHEMBL1133068, “Novel 2,2-dioxide-4,4-disubstituted-1,3-H-2,1,3-benzothiadiazines as non-nucleoside reverse transcriptase inhibitors” (Bioorg Med Chem Lett, 2000).
Counter-ions that a name gives are not always drawn. The source made the active and inactive calls. No cut-off for these calls is given here.

Columns and labels:
[1] = The compound was evaluated for antiviral activity using whole cell assay; format: functional
[2] = The compound was evaluated for antiviral activity using whole cell assay; Inactive; format: functional
[3] = biological target: T1, Human immunodeficiency virus type 1 reverse transcriptase (Human immunodeficiency virus 1, UniProt Q72547); assay: The compound was evaluated for the inhibition of HIV-1 reverse transcriptase; Inactive
[4] = biological target: T1, Human immunodeficiency virus type 1 reverse transcriptase; assay: The compound was evaluated for the inhibition of HIV-1 reverse transcriptase

IC90 [1] [µM]	IC50 [4] [µM]	Compound	IC90 [2]	IC50 [3]
0.284	24.7	O=S1(=O)Nc2ccc(F)c(F)c2C(C#CC2CC2)(C(F)(F)F)N1 (stereo not drawn)	–	–
0.002	0.031	O=C1Nc2ccc(Cl)cc2[C@@](C#CC2CC2)(C(F)(F)F)N1	–	–
0.05	–	CC(C)Nc1cccnc1N1CCN(C(=O)c2cc3cc(NS(C)(=O)=O)ccc3[nH]2)CC1 [DELAVIRDINE MESYLATE]	–	–
0.279	35.9	O=S1(=O)Nc2ccc(Cl)cc2C(C#CC2CC2)(C2CC2)N1 (stereo not drawn)	–	–
0.0017	–	O=C1Nc2ccc(Cl)cc2[C@@](C#CC2CC2)(C(F)(F)F)O1 [EFAVIRENZ]	–	–
0.643	0.137	CC(C)C#CC1(C(C)C)NS(=O)(=O)Nc2ccc(Cl)cc21 (stereo not drawn)	–	–
0.182	4.63	CC(C)C#CC1(C2CC2)NS(=O)(=O)Nc2ccc(Cl)cc21 (stereo not drawn)	–	–

The next lines start with the compound.

Compound	IC90 [1] [µM]	IC50 [4] [µM]	IC90 [2]	IC50 [3]
Cc1ccnc2c1NC(=O)c1cccnc1N2C1CC1 [NEVIRAPINE]	0.037	–	–	–
O=S1(=O)Nc2ccc(Cl)cc2C(C#Cc2ccccn2)(C2CC2)N1 (stereo not drawn)	–	–	inactive	Not Active
CCC#CC1(C(C)C)NS(=O)(=O)Nc2ccc(Cl)cc21 (stereo not drawn)	0.961	–	–	Not Active
CCC#CC1(C2CC2)NS(=O)(=O)Nc2ccc(Cl)cc21 (stereo not drawn)	0.611	–	–	Not Active
CC(C)C1(C#CC2CC2)NS(=O)(=O)Nc2ccc(Cl)cc21 (stereo not drawn)	0.677	–	–	Not Active
O=S1(=O)Nc2ccc(Cl)cc2C(C#Cc2ccccc2)(C2CC2)N1 (stereo not drawn)	–	–	inactive	Not Active
